Results on two sequences are retold here after patent US8637470B2, “Small humanin-like peptides” (The Regents of the University of California, priority 2008, dated 2014).

Entries after “also recorded” stand apart in the source; their conditions may differ. A value given as a limit tells only on which side of the number the result lay.

In assay [1] the test system is ERK. As to the kind of experiment: ERK activation in 22RV1 cells (immunoblotting, ELISA). It is filed as cell-based, human. Particulars: 22RV1, 100 nM; for ERK activation profile (immunoblotting): 15 min to 24 h. On the procedure: Characterization of the intracellular signaling pathways activated by SHLPs. To determine a mechanism for the growth and apoptosis effects of SHLPs, SHLPs were tested for the ability to modulate activation of intracellular signaling pathways. 22RV1 cells in SF media were treated with 100 nM SHLP 1-5 and whole cell extracts were harvested after 15 min, 30 min, 2 h, 4 h, 8 h and 24 h. Proteins were separated by SDS-PAGE and analyzed by immunoblotting.
To test the hypothesis that SHLPs may act in concert to regulate intracellular signaling, 22RV1 cells were co-treated with SHLPs 2 and 3, and ERK activation was assessed.
(§1) Since HN causes activation of STAT3, SHLPs 2 and 3 were also tested for effects on STAT3. […] To more accurately quantify the ERK phosphorylation caused by SHLPs 2 and 3, we repeated the experiment as described above but used a commercially available ERK ELISA to assess ERK phosphorylation. Optimal ERK activation by SHLP2 was 9-fold after 24 h, whilst optimal activation by SHLP3 was 12-fold after 2 h (FIG. 5).

The test system of assay [2] is Mouse NIT-1 insulinoma β-cells. Put plainly: Apoptosis ELISA (fragmentation of histone-associated DNA) in NIT-1 cells. The conditions noted are these: for Effect on apoptosis in the presence of IGFBP-3: NIT-1, 1 μg/ml IGFBP-3 plus SHLP; for Effect of SHLP on apoptosis after PD98059 pre-treatment: NIT-1, 25 μM PD98059 (ERK1/2 inhibitor). It is filed as cell-based. On the procedure:
SHLPs are anti-apoptotic in 22RV1 prostate cancer cells and NIT-1 β-cells. […] Mouse NIT-1 insulinoma β-cells and 22RV1 human prostate cancer cells were serum starved for 24 h, followed by 24 h incubation with 100 nM scrambled control peptide, HN or SHLPs. Apoptosis was assessed and quantified by ELISA for fragmentation of histone-associated DNA.
ERK activation is necessary for SHLP-induced inhibition of apoptosis in NIT-1 and 22RV1 cells. To determine the significance of ERK activation for apoptosis inhibition by SHLPs 2 and 3, PD98059 (PD), a specific chemical inhibitor of ERK1/2, was utilized. 22RV1 and NIT-1 cells were serum starved for 24 h in the presence or absence of 25 μM PD or 1 μM wortmannin (PI3-kinase inhibitor; negative control), followed by 24 h incubation with […] scrambled control peptide, SHLP2 or SHLP3. Apoptosis was then assessed by ELISA for fragmentation of histone-associated DNA.
Role of IGFBP-3 in effects of SHLPs on cell survival. Since IGFBP-3 is an important regulator of HN action, IGFBP-3 was tested for a possible role in regulating the anti- or pro-apoptotic actions of SHLPs. NIT-1 cells were incubated with 1 μg/ml IGFBP-3±0, 10, 100 or 1000 nM SHLP2 or 3 for 24 h. Apoptosis induction was assessed by ELISA for fragmentation of histone-associated DNA.
Co-incubation of SHLPs. To evaluate therapeutic uses involving co-treatment with SHLPs, the effect of HN±SHLPs on apoptosis was tested in both 22RV1 and NIT-1 cells. Cells were incubated in SF media for 24 h followed by 24 h with 100 nM HN, SHLP or peptide combination. Apoptosis was assessed by ELISA for fragmentation of histone-associated DNA. Cells were treated with all possible double peptide combinations. Although many peptide combinations had no additive or combined effects compared with the actions of the peptides individually, co-treatment with certain combinations led to unexpected functional changes (FIG. 11). […] Thus, specific SHLPs may either act on complementary pathways, or interact with each other, leading to change of function of one or both peptides. When the same experiments were repeated in NIT-1 cells, similar, but different, change of function effects were observed (FIG. 11B).

The subject of assay [3] is S. cerevisiae. As to the kind of experiment: Yeast heat shock survival. Type of assay: cell-based. Particulars: 10 μM peptide, 90° heat shock. The method, then:
SHLPs enhance stress resistance in yeast. The ability of SHLPs to enhance stress resistance in yeast was tested. The ability of yeast to survive heat shock after being treated with different peptides is a commonly used method to test the ability of peptides to enhance yeast survival.

The test system of assay [4] is Mouse primary cortical neurons. As to the kind of experiment: Protection of primary cortical neurons from Aβ-induced cell death (Calcein-AM). It is filed as cell-based. Particulars: 25 μM Aβ1-43, 100 nM peptide, 72 h. The method, then: SHLPs protect neurons from Aβ-induced apoptosis. When it was first discovered, HN was described as a potent neural survival factor with clinical implications as a therapeutic agent against neurodegenerative diseases such as Alzheimer's Disease. Since many of the SHLPs appear to be functionally related to HN, SHLPs were tested as potential neuroprotective factors. Mouse primary cortical neurons were incubated with 25 μM Aβ1-43 in the presence or absence of 100 nM SHLP2 or 3, HNG (positive control) or 1 nM colivelin (positive control). After 72 h, neuronal viability was assessed by Calcein-AM staining followed by fluorescence microscopy (FIG. 13).

In assay [5] the test system is Mouse NIT-1 insulinoma β-cells. As to the kind of experiment: Cell proliferation (cell number by MTT/MTS cleavage) in NIT-1 cells. Type of assay: cell-based. The conditions noted are these: NIT-1, 100 nM peptide, 72 h. On the procedure:
(§2) SHLPs exert distinct effects on cell proliferation. Whether SHLPs have the capacity to influence cell proliferation, in addition to their intrinsic effects on apoptosis induction, was also investigated. Mouse NIT-1 insulinoma β-cells and 22RV1 human prostate cancer cells were serum starved for 24 h, followed by 72 h incubation with 100 nM scrambled control peptide, HN or SHLPs. Cell number, as a measure of cell proliferation, was assessed by cleavage of MTT substrate.

In assay [6] the test system is STAT3. As to the kind of experiment: STAT3 activation in 22RV1 cells (immunoblotting). The conditions noted are these: 22RV1, 100 nM. Type of assay: cell-based, human. On the procedure:
as §1
(Immunoblotting shows a protein as a band on a membrane.)

Assay [7] relates to 22RV1 human prostate cancer cells. Put plainly: Cell proliferation (cell number by MTT/MTS cleavage) in 22RV1 cells. Particulars: 22RV1, 100 nM peptide, 72 h. Type of assay: cell-based. On the procedure: as §2
Pro-apoptotic effect on human prostate cancer cells in vitro. To assess the ability of SHLP6 to induce apoptosis in human prostate cancer cells, PC-3, 22RV1 or DU145 cells were incubated in serum free (SF) media for 24 h followed by 24 h incubation with 1 μM scrambled (control) peptide or SHLP6. Apoptosis was assessed by ELISA for fragmentation of histone-associated DNA. In each cell line tested, SHLP6 induced apoptosis by at least 2-fold (FIG. 2), confirming highly significant physiological effects of this novel peptide. To determine whether the effects of SHLP6 were specific to induction of apoptosis, or if it also elicited growth-inhibitory effects, PC-3, DU-145, 22RV1, LAPC4 and LNCaP cells were incubated in SF media for 24 h followed by 72 h incubation with 1 μM SHLP6. Cell number, as a measure of cell proliferation, was assessed by cleavage of MTS substrate.

Setting [8] is: NIT-1, 0, 10, 100 or 1000 nM SHLP, 24 h.

As to “MGVKFFTLSTRFFPSVQRAVPLWTNS [SHLP2, small humanin-like peptide, mtDNA 2092-2170]”, in assay [1], the “ERK activation profile (immunoblotting)” value is “delayed but sustained activation after 8 h”. Also, in assay [1] (after 24 h), the “Optimal ERK activation (ELISA)” value was 9 fold. Moreover, the “Apoptosis (fragmentation of histone-associated DNA)” value was “dose dependent inhibition of apoptosis” in assay [2] (setting [8]) and “significantly inhibited” in assay [2] (NIT-1, serum starved 24 h, then 24 h with 100 nM peptide). In addition, the “SHLP-induced cell survival after wortmannin pre-treatment” value in assay [2] (NIT-1, 1 μM wortmannin (PI3-kinase inhibitor)) is recorded as “not in NIT-1 cells”. The “Effect on apoptosis in the presence of IGFBP-3” value in assay [2] (24 h) is reported as “unaffected by the presence of IGFBP-3”. Besides, in assay [2], the “Effect of SHLP on apoptosis after PD98059 pre-treatment” value was “abrogated”. Besides, the “Yeast survival of heat shock” value in assay [3] is on record as “allowed the yeast to withstand 90° heat shock; also recorded: enhance yeast survival against heat shock”. For the same sequence, the “Neuronal viability against Aβ-induced cell death” value in assay [4] is listed as “protect the neurons from the cell death; also recorded: function as neuro-protective factors”. For the same sequence, the “Cell number as a measure of cell proliferation” value in assay [5] and in assay [7] was “much greater effect” throughout. Further, in assay [6], the “STAT3 activation (immunoblotting)” value was “significantly enhanced STAT3 activation”.

“MLGYNFSSFPCGTISIAPGFNFYRLYFIWVNGLAKVVW [SHLP3, small humanin-like peptide, mtDNA 1707-1821]”: in assay [1], the “Time to ERK activation” value was not above 2 min. The “ERK activation profile (immunoblotting)” value in assay [1] was “activated ERK rapidly”. Besides, the “Optimal ERK activation (ELISA)” value in assay [1] (after 2 h) is on record as 12 fold. For the same sequence, in assay [2] (setting [8]), the “Apoptosis (fragmentation of histone-associated DNA)” value was “reduced levels of apoptosis”. In assay [2] (24 h), the “Effect on apoptosis in the presence of IGFBP-3” value is given as “inhibit IGFBP-3-induced apoptosis”. Further, the “Effect of SHLP on apoptosis after PD98059 pre-treatment” value in assay [2] is reported as “abrogated”. Further, the “Yeast survival of heat shock” value in assay [3] is recorded as “allowed the yeast to withstand 90° heat shock; also recorded: enhance yeast survival against heat shock”. Further, in assay [4], the “Neuronal viability against Aβ-induced cell death” value is given as “protect the neurons from the cell death; also recorded: function as neuro-protective factors”. The “Cell number as a measure of cell proliferation” value in assay [5] and in assay [7] was “much greater effect” each time. For the same sequence, the “STAT3 activation (immunoblotting)” value in assay [6] is reported as “significantly enhanced STAT3 activation”.
